Measurements from BindingDB's records for doi:10.1016/j.bmcl.2008.12.075 (Methylgene, 2009).

The compounds below were run against T1, Histone-arginine methyltransferase CARM1 (Mus musculus, UniProt Q9WVG6) (assay: Inhibition of CARM-1 Enzymatic Activity). Conditions: pH 9; 22 °C.
T1 sequence (Q9WVG6 whole entry): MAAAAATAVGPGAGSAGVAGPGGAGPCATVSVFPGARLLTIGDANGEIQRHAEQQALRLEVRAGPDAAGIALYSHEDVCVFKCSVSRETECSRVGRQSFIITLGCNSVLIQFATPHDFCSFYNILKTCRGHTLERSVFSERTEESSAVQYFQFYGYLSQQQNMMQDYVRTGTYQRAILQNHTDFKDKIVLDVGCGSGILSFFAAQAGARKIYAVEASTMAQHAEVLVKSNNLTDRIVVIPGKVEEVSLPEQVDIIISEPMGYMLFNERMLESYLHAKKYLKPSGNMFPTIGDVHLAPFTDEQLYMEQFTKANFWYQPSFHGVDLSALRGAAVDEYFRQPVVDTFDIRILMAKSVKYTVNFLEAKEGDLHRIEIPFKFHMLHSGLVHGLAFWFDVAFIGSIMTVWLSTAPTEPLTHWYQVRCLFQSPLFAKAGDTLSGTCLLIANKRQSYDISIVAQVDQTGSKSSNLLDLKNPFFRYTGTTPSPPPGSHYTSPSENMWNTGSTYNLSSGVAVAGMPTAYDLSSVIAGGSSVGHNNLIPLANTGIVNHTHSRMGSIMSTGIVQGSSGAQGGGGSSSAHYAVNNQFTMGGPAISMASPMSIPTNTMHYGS
Method: Histone H3 is used as the substrate for CARM-1 enzyme, and the methylation is monitored using tritiated S-Adenosyl-Methionine (SAM) as a methyl donor. The enzyme mixture containing test compound is left to pre-incubate for 10 minutes, followed by the addition of Histone H3/[3H] SAM mixture. After incubation, the mixture is spotted onto P30 Filtermat paper. The incorporated radioactivity is read using a Wallac Microbeta counter. The data is analyzed to generate IC50 values.

Structure (SMILES) | IC50
COc1ccccc1CNC(=O)c1cc(C(F)(F)F)nn1-c1cccc2c1CN(C(=O)[C@H](C)N)C2 [1-{2-[(2S)-2-aminopropanoyl]-2,3-dihydro-1H-isoindol-4-yl}-N-[(2-methoxyphenyl)methyl]-3-(trifluoromethyl)-1H-pyrazole-5-carboxamide] | > 10 µM
C[C@H](N)C(=O)NCc1cccc(-n2nc(C(F)(F)F)cc2C(=O)NCc2ccccc2)c1 | 0.08 µM
C[C@H](N)C(=O)NCc1cc(-n2nc(C(F)(F)F)cc2C(=O)NCc2ccccn2)cs1 [1-(5-{[(2S)-2-aminopropanamido]methyl}thiophen-3-yl)-N-(pyridin-2-ylmethyl)-3-(trifluoromethyl)-1H-pyrazole-5-carboxamide] | 3.35 µM
